Results from patent US11161907B2, “Car-expressing cells against multiple tumor antigens and uses thereof” (Novartis AG, priority 2015, dated 2021).
Entries after “also recorded” stand apart in the source; their conditions may differ. Read-outs that look alike come from different tables or passages of the source.

What was measured:
[1] = test system: huCART19 cells co-cultured with Nalm-6; assay: 4 day co-culture proliferation assay of CARTs with RAD001; format: cell-based, human
Protocol: To evaluate the functionality of CARTs, the T cells are thawed and counted, and viability is assessed by Cellometer. The number of CAR-positive cells in each culture is normalized using non-transduced T cells (UTD). The impact of RAD001 on CARTs was tested in titrations with RAD001, starting at 50 nM. The target cell line used in all co-culture experiments is Nalm-6, a human pre-B cell acute lymphoblastic leukemia (ALL) cell line expressing CD19 and transduced to express luciferase.
For measuring the proliferation of CARTs, T cells are cultured with target cells at a ratio of 1:1. The assay is run for 4 days, when cells are stained for CD3, CD4, CD8 and CAR expression. The number of T cells is assessed by flow cytometry using counting beads as reference.

[2] = test system: NALM6-luc tumors; assay: NALM6-luc tumor growth with daily oral RAD001; format: in vivo, NSG mice; settings: daily oral dosing of RAD001 alone, 0.3-10 mg/kg
Protocol: NALM6-luc cells were grown and expanded in vitro in RPMI supplemented with 10% heat inactivated fetal bovine serum. The cells were then transferred to a 15 ml conical tube and washed twice with cold sterile PBS. NALM6-luc cells were then counted and resuspended at a concentration of 10×10^6 cells per milliliter of PBS. The cells were placed on ice and immediately (within one hour) implanted in the mice. NALM6-luc cells were injected intravenously via the tail vein in a 100 μl volume, for a total of 1×10^6 cells per mouse.
(§1) A concentrated micro-emulsion of 50 mg equal to 1 mg RAD001 was formulated and then resuspended in D5W (dextrose 5% in water) at the time of dosing. Mice were orally dosed daily (via oral gavage) with 200 μl of the desired doses of RAD001. PK analysis: Mice were dosed daily with RAD001 starting 7 days post tumor implantation. Dosing groups were as follows: 0.3 mg/kg, 1 mg/kg, 3 mg/kg, and 10 mg/kg. Mice were bled on days 0 and 14 following the first and last dose of RAD001, at the following time points for PK analysis: 15 minutes, 30 minutes, 1 hour, 2 hours, 4 hours, 8 hours, 12 hours, and 24 hours.

[3] = RAD001 pharmacokinetic analysis in blood of tumor bearing mice; format: in vivo, NSG mice; settings: for concentration at 24 h: NSG, mouse, whole blood
Protocol: as §1

[4] = test system: humanized CD19 CAR T cells; assay: In vivo proliferation of huCAR19 CAR T cells with and without RAD001 (FACS); set-up: species or system NSG mice
Protocol: Mice were administered 5×10^6 CAR T cells 7 days after tumor implantation. Cells were partially thawed in a 37 degree Celsius water bath and then completely thawed by the addition of 1 ml of cold sterile PBS to the tube containing the cells. The thawed cells were transferred to a 15 ml falcon tube and adjusted to a final volume of 10 mls with PBS. The cells were washed twice at 1000 rpm for 10 minutes each time and then counted on a hemocytometer. T cells were then resuspended at a concentration of 50×10^6 CAR T cells per ml of cold PBS and kept on ice until the mice were dosed. The mice were injected intravenously via the tail vein with 100 μl of the CAR T cells for a dose of 5×10^6 CAR T cells per mouse. Eight mice per group were treated either with 100 μl of PBS alone (PBS), or humanized CD19 CAR T cells.
A concentrated micro-emulsion of 50 mg equal to 1 mg RAD001 was formulated and then resuspended in D5W (dextrose 5% in water) at the time of dosing. Mice were orally dosed daily (via oral gavage) with 200 μl of the desired doses of RAD001. PK analysis: Mice were dosed daily with RAD001 starting 7 days post tumor implantation. Dosing groups were as follows: 0.3 mg/kg, 1 mg/kg, 3 mg/kg, and 10 mg/kg. […]
Based on these doses, huCAR19 CAR T cells were dosed with and without RAD001 to determine the proliferative ability of these cells. […] Mice were monitored via FACS for T cell expansion.

[5] = test system: subcutaneous SKOV3 tumors; assay: Established subcutaneous SKOV3 xenograft model of ovarian cancer; format: in vivo, NSG mice; settings: 3 weeks following adoptive transfer, versus UNT and CD19-27z groups
Excerpt: All animals were obtained from the Stem Cell and Xenograft Core of the Abramson Cancer Center, University of Pennsylvania. Six to 12-week-old NOD/SCID/γ-chain−/− (NSG) mice were bred, treated and maintained under pathogen-free conditions in-house under University of Pennsylvania IACUC approved protocols. For an established ovarian cancer model, 6 to 12-week-old female NSG mice were inoculated s.c. with 3×10^6 SKOV3 fLuc+ cells on the flank on day 0. After tumors become palpable at about 1 month, human primary T cell (CD4+ and CD8+ T cells used were mixed at 1:1 ratio) were activated, and transduced as described above. After 2 weeks T cell expansion, when the tumor burden was ˜200-300 mm^3, mice were treated with T cells. The route, dose, and timing of T-cell injections is indicated in the individual figure legends. Tumor dimensions were measured with calipers, and tumor volumes calculated using the formula V=½(length×width^2), where length is greatest longitudinal diameter and width is greatest transverse diameter. […] Photon emission from fLuc+ cells was quantified using the “Living Image” software (Xenogen) for all in vivo experiments. […]
Tumor growth was also monitored by Bioluminescent imaging (BLI). BLI was done using Xenogen IVIS imaging system and the photons emitted from fLuc-expressing cells within the animal body were quantified using Living Image software (Xenogen). […]

[6] = target: FRA (Homo sapiens, UniProt P15328); settings: cited from earlier work
Sequence of FRA (P15328 25-234): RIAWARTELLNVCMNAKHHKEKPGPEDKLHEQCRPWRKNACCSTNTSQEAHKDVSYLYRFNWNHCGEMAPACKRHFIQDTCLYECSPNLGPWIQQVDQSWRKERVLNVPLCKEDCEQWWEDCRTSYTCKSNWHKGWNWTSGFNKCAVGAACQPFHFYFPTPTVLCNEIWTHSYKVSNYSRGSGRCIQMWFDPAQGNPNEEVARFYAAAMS

Row | Molecule | proliferation of huCART19 cells ([1]; 0.0032 and 0.016 nM RAD001) | RAD001 concentration at which huCART19 cells expanded ([1]; 4 day co-culture with Nalm-6, 1:1) | impact on the growth of NALM6-luc tumors [2] | concentration at 24 h ([3]; oral, 0.3 mg/kg, 24 hours after the final dose, read-out: concentration of RAD001) | concentration at 24 h ([3]; day 0 PK, 24 hours after dosing, 0.3 mg/kg oral, read-out: RAD001 concentration in the blood) | RAD001 concentration in the blood ([3]; day 14 PK, 24 hours after dosing, 0.3 mg/kg oral) | stability in the blood ([3]; tumor bearing mice) | CAR T cell proliferation in vivo ([4]; 0.003 mg/kg RAD001 daily) | proliferation of the CAR T cells in vivo ([4]; lowest doses of RAD001, daily oral) | persistence of transferred T-cells in the peripheral blood [5] | binding affinity relative to murine MOv19 [6]
1 | CO[C@H]1C[C@@H]2CC[C@@H](C)[C@@](O)(O2)C(=O)C(=O)N2CCCC[C@H]2C(=O)O[C@H]([C@H](C)C[C@@H]2CC[C@@H](OCCO)[C@H](OC)C2)CC(=O)[C@H](C)/C=C(\C)[C@@H](O)[C@@H](OC)C(=O)[C@H](C)C[C@H](C)/C=C/C=C/C=C/1C [RAD001, (1R,9S,12S,15R,16E,18R,19R,21R,23S,24E,26E,28E,30S,32S,35R)-1,18-dihydroxy-12-{(1R)-2-[(1S,3R,4R)-4-(2-hydroxyethoxy)-3-methoxycyclohexyl]-1-methylethyl}-19,30-dimethoxy-15,17,21,23,29,35-hexamethyl-11,36-dioxa-4-aza-tricyclo[30.3.1.04,9]hexatriaconta-16,24,26,28-tetraene-2,3,10,14,20-pentaone] | higher than observed without the addition of RAD001 | less than 0.016 nM | did not have an impact | > 10 nM | > 10 nM | above 10 nm | fairly stable | enhancement in CAR T cell proliferation | enhanced proliferation |  | 
2 | C4: fully human anti-FRA scFv/Fab fragment, scFv SEQ ID NO: 98 (protein) scFv: QLVESGGGLVQPGRSLRLSCTTSGFTFGDYAMIWARQAPGKGLEWVSSISSSSSYIYYADSVKGRFTISRDNAKNSLYLQMNSLRAEDTAVYYCARERYDFWSGMDVWGKGTTVTVSSGGGGSGGGGSGGSAQSALTQPASVSGSPGQSITISCTGTSSDVGSYNLVSWYQQHPGKAPKLMIYEGSKRPSGVSNRFSGSKSGNAASLTISGLQAEDEADYYCQSYDSSLSVVFGGGTKLTVLG |  |  |  |  |  |  |  |  |  | higher numbers of CD4+ and CD8+ T cells | approximately five-fold less; also recorded: approximately five-fold weaker
